Experimental data as given in ChEMBL document CHEMBL1201862, “PubChem BioAssay data set” (2004).
Activity calls are given as the source filed them.

Assays:
Hexokinase HKDC1 = target: T1, Hexokinase HKDC1 (Homo sapiens, UniProt Q2TB90); assay: HKDC1 hexokinase inhibitors, dose response, biochemical, W721R variant (AID 504729); assay type: functional
T1 sequence (Q2TB90 whole entry): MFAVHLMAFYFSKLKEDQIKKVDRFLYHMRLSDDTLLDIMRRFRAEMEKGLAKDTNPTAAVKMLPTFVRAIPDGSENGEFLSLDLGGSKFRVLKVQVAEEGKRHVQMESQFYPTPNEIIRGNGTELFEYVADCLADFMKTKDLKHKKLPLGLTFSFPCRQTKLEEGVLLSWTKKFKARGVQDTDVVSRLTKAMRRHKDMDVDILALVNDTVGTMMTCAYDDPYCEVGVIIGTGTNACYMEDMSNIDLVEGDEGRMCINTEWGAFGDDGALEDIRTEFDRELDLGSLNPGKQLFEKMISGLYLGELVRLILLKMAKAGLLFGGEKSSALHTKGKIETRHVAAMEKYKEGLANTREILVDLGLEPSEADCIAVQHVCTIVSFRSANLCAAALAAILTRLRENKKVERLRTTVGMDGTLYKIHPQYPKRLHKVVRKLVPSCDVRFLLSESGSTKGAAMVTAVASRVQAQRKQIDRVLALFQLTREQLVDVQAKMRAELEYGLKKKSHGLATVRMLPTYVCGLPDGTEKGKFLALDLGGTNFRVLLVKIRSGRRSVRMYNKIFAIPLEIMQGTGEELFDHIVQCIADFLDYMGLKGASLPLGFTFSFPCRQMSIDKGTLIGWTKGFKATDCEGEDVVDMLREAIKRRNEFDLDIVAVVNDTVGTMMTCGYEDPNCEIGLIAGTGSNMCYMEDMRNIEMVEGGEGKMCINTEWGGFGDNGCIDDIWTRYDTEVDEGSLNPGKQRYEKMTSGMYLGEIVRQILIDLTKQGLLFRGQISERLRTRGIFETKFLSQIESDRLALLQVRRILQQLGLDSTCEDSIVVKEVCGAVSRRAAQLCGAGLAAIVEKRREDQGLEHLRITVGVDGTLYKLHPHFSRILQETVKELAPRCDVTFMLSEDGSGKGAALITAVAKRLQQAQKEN

[1] = target: Bifunctional protein GlmU (Mycobacterium tuberculosis, UniProt P9WMN3); assay: Inhibitors of Mycobacterial Glucosamine-1-phosphate acetyl transferase (GlmU). Secondary screen.; design: species or system Mycobacterium tuberculosis H37Rv
Chain of Bifunctional protein GlmU (P9WMN3 whole entry): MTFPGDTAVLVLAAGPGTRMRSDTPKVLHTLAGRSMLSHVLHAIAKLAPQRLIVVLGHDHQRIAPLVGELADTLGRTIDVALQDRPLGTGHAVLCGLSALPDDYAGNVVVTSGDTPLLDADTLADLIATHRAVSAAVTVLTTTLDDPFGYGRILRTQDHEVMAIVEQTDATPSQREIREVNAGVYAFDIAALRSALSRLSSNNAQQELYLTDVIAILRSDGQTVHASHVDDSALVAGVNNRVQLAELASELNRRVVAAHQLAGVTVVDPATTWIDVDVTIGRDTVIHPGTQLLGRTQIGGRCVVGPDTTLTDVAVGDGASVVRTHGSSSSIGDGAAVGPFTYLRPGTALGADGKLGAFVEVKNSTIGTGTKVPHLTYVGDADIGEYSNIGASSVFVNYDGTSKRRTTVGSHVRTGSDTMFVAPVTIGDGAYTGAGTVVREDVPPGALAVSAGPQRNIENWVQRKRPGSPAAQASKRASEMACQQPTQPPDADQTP

[2] = target: T2, Histone-lysine N-methyltransferase NSD2 (Homo sapiens, UniProt O96028); assay type: biochemical
T2 sequence (O96028 whole entry): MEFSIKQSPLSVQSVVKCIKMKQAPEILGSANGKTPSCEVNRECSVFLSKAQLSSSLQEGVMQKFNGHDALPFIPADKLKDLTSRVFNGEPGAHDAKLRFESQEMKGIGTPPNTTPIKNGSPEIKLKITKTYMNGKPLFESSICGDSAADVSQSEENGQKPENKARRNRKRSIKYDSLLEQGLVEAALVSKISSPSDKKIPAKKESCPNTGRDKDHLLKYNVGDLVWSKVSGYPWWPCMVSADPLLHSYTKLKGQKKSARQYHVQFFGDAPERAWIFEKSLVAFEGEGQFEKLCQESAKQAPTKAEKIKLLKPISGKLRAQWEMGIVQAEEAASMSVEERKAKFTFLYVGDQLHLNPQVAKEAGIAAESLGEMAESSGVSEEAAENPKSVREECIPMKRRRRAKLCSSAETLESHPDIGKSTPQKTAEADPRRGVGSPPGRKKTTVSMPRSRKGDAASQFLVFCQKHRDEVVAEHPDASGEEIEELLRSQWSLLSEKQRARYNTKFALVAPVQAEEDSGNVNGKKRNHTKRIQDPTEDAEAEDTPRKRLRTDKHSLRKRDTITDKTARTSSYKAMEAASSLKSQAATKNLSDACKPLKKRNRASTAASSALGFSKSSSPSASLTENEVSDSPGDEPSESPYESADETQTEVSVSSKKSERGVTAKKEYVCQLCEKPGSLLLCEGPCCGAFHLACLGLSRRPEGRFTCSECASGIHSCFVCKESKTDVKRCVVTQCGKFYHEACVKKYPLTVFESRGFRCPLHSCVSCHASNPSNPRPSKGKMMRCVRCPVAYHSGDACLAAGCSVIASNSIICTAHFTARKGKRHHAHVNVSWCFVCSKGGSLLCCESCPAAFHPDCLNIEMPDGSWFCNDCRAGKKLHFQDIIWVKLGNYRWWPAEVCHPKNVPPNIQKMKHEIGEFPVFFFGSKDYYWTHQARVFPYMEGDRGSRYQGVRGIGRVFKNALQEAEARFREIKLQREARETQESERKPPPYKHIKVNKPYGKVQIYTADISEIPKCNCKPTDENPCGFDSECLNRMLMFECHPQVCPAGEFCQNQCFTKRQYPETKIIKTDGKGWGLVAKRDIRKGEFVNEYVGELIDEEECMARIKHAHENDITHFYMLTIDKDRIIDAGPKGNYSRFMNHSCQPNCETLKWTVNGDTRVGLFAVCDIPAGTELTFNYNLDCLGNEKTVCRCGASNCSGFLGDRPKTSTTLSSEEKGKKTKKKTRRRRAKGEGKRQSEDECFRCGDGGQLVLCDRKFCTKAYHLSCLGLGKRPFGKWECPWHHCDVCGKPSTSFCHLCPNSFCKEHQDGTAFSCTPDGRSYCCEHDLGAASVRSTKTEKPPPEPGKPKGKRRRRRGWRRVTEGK

[3] = inhibitors of Bluetongue virus cytopathic effect, confirmation, arbovirus, BSR cells (AID 1250); assay type: functional;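 further: protection from viral cytopathic effect measured as cell viability by ATP luminescence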
Aminopeptidase N = target: T3, Aminopeptidase N (Plasmodium falciparum FcB1/Columbia, UniProt O96935); assay: P. falciparum M1AAP inhibitors, biochemical, fluorogenic H-Leu-NHMec substrate, 1536-well (AID 1445); design: species or system Plasmodium falciparum 3D7, 3D7
T3 sequence (O96935 whole entry): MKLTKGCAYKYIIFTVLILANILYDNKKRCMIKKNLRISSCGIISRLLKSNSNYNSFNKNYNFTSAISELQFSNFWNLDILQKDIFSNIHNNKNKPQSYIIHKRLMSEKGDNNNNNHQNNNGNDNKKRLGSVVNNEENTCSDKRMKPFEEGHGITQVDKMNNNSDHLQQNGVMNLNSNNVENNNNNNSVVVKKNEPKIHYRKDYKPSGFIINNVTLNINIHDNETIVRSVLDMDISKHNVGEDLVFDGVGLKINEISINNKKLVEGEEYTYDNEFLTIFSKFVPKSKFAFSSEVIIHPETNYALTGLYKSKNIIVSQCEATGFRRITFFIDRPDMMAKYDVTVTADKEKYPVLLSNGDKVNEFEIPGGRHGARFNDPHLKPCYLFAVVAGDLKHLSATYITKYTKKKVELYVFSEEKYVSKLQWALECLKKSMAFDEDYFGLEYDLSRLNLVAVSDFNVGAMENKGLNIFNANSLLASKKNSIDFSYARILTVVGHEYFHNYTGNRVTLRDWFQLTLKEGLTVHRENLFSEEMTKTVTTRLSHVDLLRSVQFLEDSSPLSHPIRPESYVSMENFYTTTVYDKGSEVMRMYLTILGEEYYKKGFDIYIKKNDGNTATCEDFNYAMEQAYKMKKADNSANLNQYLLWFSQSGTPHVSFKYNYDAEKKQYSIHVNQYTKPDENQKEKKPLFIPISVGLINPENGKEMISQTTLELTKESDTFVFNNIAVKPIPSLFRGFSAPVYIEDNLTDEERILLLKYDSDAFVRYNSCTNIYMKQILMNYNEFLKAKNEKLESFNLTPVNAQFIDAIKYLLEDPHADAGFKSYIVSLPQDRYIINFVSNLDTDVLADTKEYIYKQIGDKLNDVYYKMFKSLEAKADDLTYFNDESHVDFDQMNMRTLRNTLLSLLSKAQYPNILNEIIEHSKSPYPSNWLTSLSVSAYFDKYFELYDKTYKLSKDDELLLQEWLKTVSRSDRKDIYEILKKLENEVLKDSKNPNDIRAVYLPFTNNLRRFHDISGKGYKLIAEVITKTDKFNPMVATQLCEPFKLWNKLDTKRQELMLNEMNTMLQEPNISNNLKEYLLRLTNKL

[4] = target: Mitogen-activated protein kinase 10 (Homo sapiens, UniProt P53779); assay: Dose response biochemical screening assay for inhibitors of c-Jun N-Terminal Kinase 3 (JNK3). [Related pubchem assays: 746 ]
Chain of Mitogen-activated protein kinase 10 (P53779 whole entry): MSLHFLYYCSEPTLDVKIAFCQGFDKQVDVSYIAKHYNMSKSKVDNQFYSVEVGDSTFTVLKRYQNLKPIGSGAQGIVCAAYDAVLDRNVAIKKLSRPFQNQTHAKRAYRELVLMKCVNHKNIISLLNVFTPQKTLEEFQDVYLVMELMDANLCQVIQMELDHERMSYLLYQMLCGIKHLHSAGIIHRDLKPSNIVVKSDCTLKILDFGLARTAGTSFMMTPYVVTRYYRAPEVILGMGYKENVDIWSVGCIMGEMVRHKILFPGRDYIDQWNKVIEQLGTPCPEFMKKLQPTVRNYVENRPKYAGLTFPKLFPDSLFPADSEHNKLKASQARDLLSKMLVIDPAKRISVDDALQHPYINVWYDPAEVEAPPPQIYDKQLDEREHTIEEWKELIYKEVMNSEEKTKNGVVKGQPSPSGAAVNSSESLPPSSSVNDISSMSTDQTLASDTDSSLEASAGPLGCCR

[5] = target: Sphingosine 1-phosphate receptor 2 (Homo sapiens, UniProt O95136); assay: Dose Response Cell Based Assay for Agonists of the S1P2 Receptor. [Related pubchem assays: 729, 736, 843 ]; assay type: functional
Chain of Sphingosine 1-phosphate receptor 2 (O95136 whole entry): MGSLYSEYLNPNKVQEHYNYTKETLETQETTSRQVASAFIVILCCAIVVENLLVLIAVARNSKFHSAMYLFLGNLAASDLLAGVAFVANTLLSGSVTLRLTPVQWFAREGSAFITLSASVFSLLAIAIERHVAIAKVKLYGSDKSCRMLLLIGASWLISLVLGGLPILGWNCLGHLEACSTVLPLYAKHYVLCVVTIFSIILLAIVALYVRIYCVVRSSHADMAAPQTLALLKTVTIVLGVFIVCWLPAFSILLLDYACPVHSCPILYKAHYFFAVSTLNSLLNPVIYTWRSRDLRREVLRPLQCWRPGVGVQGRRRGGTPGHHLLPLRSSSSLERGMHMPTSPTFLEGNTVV

[6] = target: Mannose-6-phosphate isomerase (Homo sapiens, UniProt P34949); assay: human PMI inhibitors, high substrate, primary screen, biochemical, fluorescence intensity, high mannose 6-phosphate (AID 1220)
Chain of Mannose-6-phosphate isomerase (P34949 whole entry): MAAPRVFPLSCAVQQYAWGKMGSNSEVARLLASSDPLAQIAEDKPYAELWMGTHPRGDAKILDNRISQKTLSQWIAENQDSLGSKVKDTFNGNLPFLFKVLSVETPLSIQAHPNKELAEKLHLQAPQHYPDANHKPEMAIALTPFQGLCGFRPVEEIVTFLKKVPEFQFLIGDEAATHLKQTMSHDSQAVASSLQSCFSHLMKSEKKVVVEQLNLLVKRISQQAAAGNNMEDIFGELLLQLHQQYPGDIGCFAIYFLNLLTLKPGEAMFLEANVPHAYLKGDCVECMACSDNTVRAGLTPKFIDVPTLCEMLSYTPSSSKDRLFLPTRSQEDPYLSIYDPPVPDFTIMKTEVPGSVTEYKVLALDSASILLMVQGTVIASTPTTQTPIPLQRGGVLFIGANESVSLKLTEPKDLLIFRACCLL

[7] = target: T4, Rac GTPase-activating protein 1 (Homo sapiens, UniProt Q9H0H5); assay: MgcRacGAP GTPase-activating activity inhibitors, confirmation, biochemical, ADP Hunter fluorescence, primary and confirmatory (AID 624330); assay type: functional
T4 sequence (Q9H0H5 whole entry): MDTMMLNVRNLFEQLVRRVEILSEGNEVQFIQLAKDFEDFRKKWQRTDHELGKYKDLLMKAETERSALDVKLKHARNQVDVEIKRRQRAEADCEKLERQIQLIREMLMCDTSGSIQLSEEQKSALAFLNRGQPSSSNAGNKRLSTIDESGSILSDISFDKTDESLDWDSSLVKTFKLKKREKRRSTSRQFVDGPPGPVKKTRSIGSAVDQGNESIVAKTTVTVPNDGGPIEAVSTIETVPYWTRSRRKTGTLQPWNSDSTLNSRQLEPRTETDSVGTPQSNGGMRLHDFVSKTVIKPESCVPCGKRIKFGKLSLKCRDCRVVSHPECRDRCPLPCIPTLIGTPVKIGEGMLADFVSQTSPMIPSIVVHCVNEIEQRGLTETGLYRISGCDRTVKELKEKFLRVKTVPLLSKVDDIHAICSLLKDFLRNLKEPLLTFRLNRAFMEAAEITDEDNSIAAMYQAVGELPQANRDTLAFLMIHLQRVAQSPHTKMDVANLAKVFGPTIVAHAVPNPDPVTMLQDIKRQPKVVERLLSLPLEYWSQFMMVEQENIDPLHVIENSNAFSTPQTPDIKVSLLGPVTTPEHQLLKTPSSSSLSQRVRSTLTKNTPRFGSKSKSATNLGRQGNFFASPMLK

[8] = target: T5, Apoptotic protease-activating factor 1 (Homo sapiens, UniProt O14727); assay type: functional
T5 sequence (O14727 whole entry): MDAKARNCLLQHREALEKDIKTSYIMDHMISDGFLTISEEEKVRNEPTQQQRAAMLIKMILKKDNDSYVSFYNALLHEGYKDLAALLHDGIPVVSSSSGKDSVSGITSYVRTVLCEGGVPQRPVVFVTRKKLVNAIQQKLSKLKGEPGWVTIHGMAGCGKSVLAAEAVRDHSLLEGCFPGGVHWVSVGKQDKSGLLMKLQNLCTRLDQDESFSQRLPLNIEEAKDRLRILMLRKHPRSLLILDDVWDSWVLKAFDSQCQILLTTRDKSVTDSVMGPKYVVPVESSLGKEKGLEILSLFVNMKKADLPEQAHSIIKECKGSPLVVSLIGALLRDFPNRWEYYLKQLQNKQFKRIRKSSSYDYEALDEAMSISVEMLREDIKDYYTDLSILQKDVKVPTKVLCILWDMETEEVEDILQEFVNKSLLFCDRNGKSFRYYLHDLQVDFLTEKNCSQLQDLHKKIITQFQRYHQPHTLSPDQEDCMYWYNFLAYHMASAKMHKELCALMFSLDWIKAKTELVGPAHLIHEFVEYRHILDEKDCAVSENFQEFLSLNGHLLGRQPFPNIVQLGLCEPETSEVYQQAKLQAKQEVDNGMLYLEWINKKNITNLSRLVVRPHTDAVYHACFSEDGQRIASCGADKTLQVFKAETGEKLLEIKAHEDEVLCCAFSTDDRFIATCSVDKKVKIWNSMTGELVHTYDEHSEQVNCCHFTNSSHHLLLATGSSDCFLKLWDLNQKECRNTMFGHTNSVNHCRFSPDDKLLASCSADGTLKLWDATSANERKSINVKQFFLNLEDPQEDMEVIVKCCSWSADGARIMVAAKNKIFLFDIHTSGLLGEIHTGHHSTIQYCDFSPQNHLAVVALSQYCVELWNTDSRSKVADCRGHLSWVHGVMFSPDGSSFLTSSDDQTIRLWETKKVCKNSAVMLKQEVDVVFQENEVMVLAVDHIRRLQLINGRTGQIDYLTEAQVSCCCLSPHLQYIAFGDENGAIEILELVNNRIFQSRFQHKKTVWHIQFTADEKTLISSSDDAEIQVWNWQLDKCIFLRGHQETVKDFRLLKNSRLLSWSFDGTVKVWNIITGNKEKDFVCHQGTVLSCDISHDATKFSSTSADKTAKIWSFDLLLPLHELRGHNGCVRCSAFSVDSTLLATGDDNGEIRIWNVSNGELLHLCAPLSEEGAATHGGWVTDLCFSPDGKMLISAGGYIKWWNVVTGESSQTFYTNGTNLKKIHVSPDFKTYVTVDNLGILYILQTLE

[9] = target: T6, Low molecular weight phosphotyrosine protein phosphatase (Homo sapiens, UniProt P24666); assay: LMPTP phosphatase inhibitors, colorimetric pNPP readout, dose response, orthogonal assay, biochemical, absorbance, pNPP substrate, LMPTP-A isoform, set 2 (AID 743308); assay type: functional
T6 sequence (P24666 whole entry): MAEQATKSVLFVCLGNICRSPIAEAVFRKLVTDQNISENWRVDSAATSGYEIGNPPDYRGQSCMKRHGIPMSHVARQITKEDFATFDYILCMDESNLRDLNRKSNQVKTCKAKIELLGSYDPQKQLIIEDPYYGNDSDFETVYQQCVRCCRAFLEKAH

[10] = target: T6, Low molecular weight phosphotyrosine protein phosphatase; assay: LMPTP phosphatase inhibitors, dose response, biochemical, OMFP substrate, fluorescence intensity, set 2 (AID 743307); assay type: functional

In the case of `COc1cc(/C=C(\C#N)c2nc3cc(C)ccc3[nH]2)cc([N+](=O)[O-])c1O`, the IC50 (Hexokinase HKDC1) is reported as 16.1 µM (active), the IC50 [1] is reported as 94.3 µM (active) and the AC50 [2] is reported as > 20 µM (inactive). For the same compound, the IC50 [3] was 24.5 µM (active) and the IC50 (Aminopeptidase N) was 16.2 µM (active).
For `Cc1nn(C)cc1CNC(=O)c1cnn2c(C(F)F)cc(C3CC3)nc12`, the IC50 [4] was 26.8 µM (not active).
For `COC(=O)c1c[nH]nc1N=C(S)Nc1ccccc1C`, the EC50 [5] was > 50 µM (not active).
In the case of `CC1(C)CNc2cc(N)ccc2S1`, the IC50 [6] is reported as > 50 µM (not active), the IC50 [7] is reported as 22.9 µM (active) and the IC50 [8] is reported as 7.45 µM (active).
In the case of `CCN(CC)c1nc(-c2ccccc2)nc2ccccc12`, the IC50 [9] is reported as > 80 µM (inactive) and the IC50 [10] is reported as 53.1 µM (inactive).
